Data as given in patent US7006929B2, “Signal detecting sensor provided with multi-electrode” (Matsushita Electric Industrial Co., Ltd., priority 2001, dated 2006).

Test system: artificially reconstructed neural cell network (rat cerebral cortex neurons)
Experiment: stimulus transmission in reconstructed neural cell network on 64-electrode sensor
Assay type: cell-based
Settings: 40 μM, treated for 10 minutes; constant voltage stimulus at one electrode (row 5, column 5)
Protocol: Neurons were prepared from the cerebral cortex of gestation day 17 rat embryos and were suspended in Dulbecco's modified medium, and were dispensed into each container of a sensor comprising 64 electrodes and containers as shown in FIG. 3 at a concentration of 5×10^5 cells/ml, followed by culturing for two weeks. As a result, an artificial neural cell network was reconstructed on the sensor. The sensor containing the reconstructed neural cell network was used as follows. An apparatus having the configuration of FIG. […] The transmission of the stimulus was measured by detecting cell potentials at the remaining 63 electrodes. […] A neural cell network reconstructed as in Examples 1 and 2 was treated with 40 μM DNQX (6,7-Dinitroquinoxaline-2,3(1H,4H)-dione) for 10 minutes. As in Example 2, a constant voltage stimulus was applied to a cell on a sensor. The transmission of the stimulus was measured by detecting cell potentials at the remaining 63 electrodes.

O=c1[nH]c2cc([N+](=O)[O-])c([N+](=O)[O-])cc2[nH]c1=O [DNQX, 6,7-Dinitroquinoxaline-2,3(1H,4H)-dione]
response (cell potentials) at the remaining 63 electrodes to constant voltage stimulus: a response was not observed at any of the electrodes
